Measured values reported in ChEMBL document CHEMBL6127136, “Discovery of 1-(Phenylsulfonyl)-1,2,3,4-tetrahydroquinoline Derivative as Orally Bioavailable and Safe RORγt Inverse Agonists for Potential Treatment of Rheumatoid Arthritis” (J Med Chem, 2024).
Activity calls are given as the source filed them. The rule behind the calls is not given here.

Experiments:
[1] = molecular target: T1, Nuclear receptor ROR-gamma (Homo sapiens, UniProt P51449); assay: Inverse agonist activity at N-terminal 6-His-tagged/APC-labeled human RORgammat LBD extracted from Escherichia coli assessed as inhibition of europium-labeled SRC-1 recruitment incubated for 3 hrs by TR-FRET analysis
T1 sequence (P51449 whole entry): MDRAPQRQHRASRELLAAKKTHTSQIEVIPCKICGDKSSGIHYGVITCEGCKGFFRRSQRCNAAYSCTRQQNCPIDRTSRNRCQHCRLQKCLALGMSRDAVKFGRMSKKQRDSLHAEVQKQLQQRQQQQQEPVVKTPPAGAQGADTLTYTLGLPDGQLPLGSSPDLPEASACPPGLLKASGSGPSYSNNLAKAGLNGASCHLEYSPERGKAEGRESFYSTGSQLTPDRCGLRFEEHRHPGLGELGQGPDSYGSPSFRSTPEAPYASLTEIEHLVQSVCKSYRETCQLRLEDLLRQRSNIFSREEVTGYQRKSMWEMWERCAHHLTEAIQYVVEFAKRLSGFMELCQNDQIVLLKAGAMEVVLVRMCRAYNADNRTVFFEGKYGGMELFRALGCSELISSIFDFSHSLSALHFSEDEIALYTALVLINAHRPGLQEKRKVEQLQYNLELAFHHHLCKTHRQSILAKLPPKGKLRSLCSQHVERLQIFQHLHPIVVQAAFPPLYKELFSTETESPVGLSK

[2] = system: HeLa; assay: Antiproliferative activity against human HeLa cells assessed as inhibition of colony formation at 2 to 8 uM incubated for 7 days by crystal violet staining based light microscopic analysis; assay type: toxicity, cell-based; settings: 168 h, dose 2-8 µM, time 7 day
[3] = system: HUVEC; assay: Antiproliferative activity against HUVEC cells assessed as inhibition of colony formation at 2 to 8 uM incubated for 7 days by crystal violet staining based light microscopic analysis; assay type: toxicity, cell-based; settings: human, 168 h, dose 2-8 µM, time 7 day
[4] = molecular target: T1, Nuclear receptor ROR-gamma; assay: Inverse agonist activity at GAL4 DNA-binding domain fused RORgamma (unknown origin) transfected in HEK293T cells co-transfected with GAL4-promoter driven luciferase reporter gene assessed as inhibition of RORgammat transcription incubated for 18 to 20 hrs by plate reader analysis; assay type: cell-based
[5] = Half-life in male DBA/1 mouse at 5 mg/kg, iv measured after 24 hrs by HPLC analysis; assay type: ADME, organism-based; settings: in vivo
[6] = Tmax in male DBA/1 mouse at 5 mg/kg, iv measured after 24 hrs by HPLC analysis; assay type: ADME, organism-based; settings: in vivo
[7] = Cmax in male DBA/1 mouse at 5 mg/kg, iv measured after 24 hrs by HPLC analysis; assay type: ADME, organism-based; settings: in vivo
[8] = AUC (0 to t) in male DBA/1 mouse at 5 mg/kg, iv measured after 24 hrs by HPLC analysis; assay type: ADME, organism-based; settings: in vivo
[9] = AUC (0 to infinity) in male DBA/1 mouse at 5 mg/kg, iv measured after 24 hrs by HPLC analysis; assay type: ADME, organism-based; settings: in vivo
[10] = Clearance in male DBA/1 mouse at 5 mg/kg, iv measured after 24 hrs by HPLC analysis; assay type: ADME, organism-based; settings: in vivo
[11] = Half-life in male DBA/1 mouse at 20 mg/kg, po measured after 24 hrs by HPLC analysis; assay type: ADME, organism-based; settings: in vivo
[12] = Tmax in male DBA/1 mouse at 20 mg/kg, po measured after 24 hrs by HPLC analysis; assay type: ADME, organism-based; settings: in vivo
[13] = Cmax in male DBA/1 mouse at 20 mg/kg, po measured after 24 hrs by HPLC analysis; assay type: ADME, organism-based; settings: in vivo
[14] = AUC (0 to t) in male DBA/1 mouse at 20 mg/kg, po measured after 24 hrs by HPLC analysis; assay type: ADME, organism-based; settings: in vivo
[15] = AUC (0 to infinity) in male DBA/1 mouse at 20 mg/kg, po measured after 24 hrs by HPLC analysis; assay type: ADME, organism-based; settings: in vivo
[16] = Oral bioavailability in male DBA/1 mouse at 20 mg/kg measured after 24 hrs by HPLC analysis; assay type: ADME, organism-based; settings: in vivo
[17] = Toxicity in imiquimod-induced psoriasis-like skin inflammation Balb/c mouse model assessed as change in body weight at 5 to 15 mg/kg, IG preadministered with IMQ for 3 days followed by compound administration from day 4 and measured on day 14; assay type: organism-based; settings: in vivo, po, 264 h, dose 5-15 mg/kg, time 11 day
[18] = system: Mus musculus; assay: (§1) Antiinflammatory activity against imiquimod-induced psoriasis-like skin inflammation in Balb/c mouse model assessed as reduction in total psoriasis area preadministered with IMQ for 3 days followed by intragastric compound administration from day 4 and measured on day 14; assay type: functional, organism-based; settings: dose 10-15 mg/kg, route ig, time 11.0 day
[19] = system: Mus musculus; assay: Antiinflammatory activity against imiquimod-induced psoriasis-like skin inflammation in Balb/c mouse model assessed as reduction in total psoriasis severity index preadministered with IMQ for 3 days followed by intragastric compound administration from day 4 and measured on day 14; assay type: functional, organism-based; settings: dose 10-15 mg/kg, route ig, time 11.0 day
[20] = system: Mus musculus; assay: Antiinflammatory activity against imiquimod-induced psoriasis-like skin inflammation in Balb/c mouse model assessed as reduction in IL-17A level in peripheral blood preadministered with IMQ for 3 days followed by intragastric compound administration from day 4 and measured on day 13 by ELISA; assay type: functional, organism-based; settings: dose 5-15 mg/kg, route ig, time 10.0 day
[21] = system: Mus musculus; assay: Antiinflammatory activity against imiquimod-induced psoriasis-like skin inflammation in Balb/c mouse model assessed as reduction in IL-17F level in peripheral blood preadministered with IMQ for 3 days followed by intragastric compound administration from day 4 and measured on day 13 by ELISA; assay type: functional, organism-based; settings: dose 5-15 mg/kg, route ig, time 10.0 day
[22] = system: Mus musculus; assay: Antiinflammatory activity against imiquimod-induced psoriasis-like skin inflammation in Balb/c mouse model assessed as reduction in IL-23 level in peripheral blood preadministered with IMQ for 3 days followed by intragastric compound administration from day 4 and measured on day 13 by ELISA; assay type: functional, organism-based; settings: dose 5-15 mg/kg, route ig, time 10.0 day
[23] = system: Mus musculus; assay: as §1, with “mononuclear cell infiltration in skin at 15 mg/kg, IG” for “total psoriasis area”, “by” for “by intragastric”, “14 by H and E staining based analysis” for “14”; assay type: functional, organism-based; settings: time 11.0 day
[24] = system: Mus musculus; assay: as §1, with “inflammatory cell infiltration in skin at 15 mg/kg, IG” for “total psoriasis area”, “by” for “by intragastric”, “14 by H and E staining based analysis” for “14”; assay type: functional, organism-based; settings: time 11.0 day
[25] = system: Mus musculus; assay: (§2) Antiinflammatory activity against imiquimod-induced psoriasis-like skin inflammation in Balb/c mouse model assessed as attenuation of skin layer thickening at 15 mg/kg, IG preadministered with IMQ for 3 days followed by compound administration from day 4 and measured on day 14 by H and E staining based analysis; assay type: functional, organism-based; settings: time 11.0 day
[26] = system: Mus musculus; assay: as §2, with “decrease in dermal telangiectasia” for “attenuation of skin layer thickening”; assay type: functional, organism-based; settings: time 11.0 day
[27] = system: Mus musculus; assay: as §2, with “decrease in IL-17A expression in” for “attenuation of”, “skin” for “skin layer thickening”, “immunohistochemical” for “H and E staining based”; assay type: functional, organism-based; settings: time 11.0 day
[28] = system: Mus musculus; assay: as §2, with “decrease in IL-17F expression in” for “attenuation of”, “skin” for “skin layer thickening”, “immunohistochemical” for “H and E staining based”; assay type: functional, organism-based; settings: time 11.0 day
[29] = system: Mus musculus; assay: as §2, with “decrease in IL-23 expression in” for “attenuation of”, “skin” for “skin layer thickening”, “immunohistochemical” for “H and E staining based”; assay type: functional, organism-based; settings: time 11.0 day
[30] = system: Mus musculus; assay: as §1, with “decrease” for “reduction”, “IL-17A expression in skin” for “total psoriasis area”, “14 by immunohistochemical analysis” for “14”; assay type: functional, organism-based; settings: dose 5-15 mg/kg, route ig, time 11.0 day
[31] = system: Mus musculus; assay: as §1, with “decrease” for “reduction”, “IL-17F expression in skin” for “total psoriasis area”, “14 by immunohistochemical analysis” for “14”; assay type: functional, organism-based; settings: dose 5-15 mg/kg, route ig, time 11.0 day
[32] = system: Mus musculus; assay: as §1, with “decrease” for “reduction”, “IL-23 expression in skin” for “total psoriasis area”, “14 by immunohistochemical analysis” for “14”; assay type: functional, organism-based; settings: dose 5-15 mg/kg, route ig, time 11.0 day

- IC50 [1]: 3.5 nM
- IC50 [4]: 21 nM
- half-life [5]: 3.87 h
- Tmax [6]: 4.98 min
- Cmax [7]: 1210 ng/mL
- AUC(0-t) at 24 h [8]: 995 ng·h/mL
- AUC(0-inf) [9]: 1020 ng·h/mL
- clearance [10]: 81.9 mL/min/kg
- half-life [11]: 4.67 h
- Tmax [12]: 0.5 h
- Cmax [13]: 485 ng/mL
- AUC(0-t) at 24 h [14]: 1890 ng·h/mL
- AUC(0-inf) [15]: 1960 ng·h/mL
- bioavailability [16]: 48.1%
SMILES: CCC1CCc2cc(C(C)C)ccc2N1S(=O)(=O)c1ccc(OCC2CCOCC2)c(CO)c1 (racemic)
- Activity [2]: Non-Toxic
- Activity [3]: Non-Toxic
- Activity [17]: Non-Toxic
- Activity [18]: Dose-Dependent Effect
- Activity [19]: Dose-Dependent Effect
- Activity [20]: Dose-Dependent Effect
- Activity [21]: Dose-Dependent Effect
- Activity [22]: Dose-Dependent Effect
- Activity [23]: Active
- Activity [24]: Active
- Activity [25]: Active
- Activity [26]: Active
- Activity [27]: Active
- Activity [28]: Active
- Activity [29]: Active
- Activity [30]: Dose-Dependent Effect
- Activity [31]: Dose-Dependent Effect
- Activity [32]: Dose-Dependent Effect
